The subject of the experiment is C. elegans.
The mark [1] stands for this setting: Table S2, C. elegans SS assay, 110 μM, 0 h, averages of 4 data points.
The mark [2] stands for this setting: Table S2, C. elegans SS assay, 110 μM, 24 h, averages of 4 data points.

Like-named read-outs stand apart in the source and are kept apart here.

`Cl.OC(c1cc(C(F)(F)F)nc2c(C(F)(F)F)cccc12)C1CCCCN1` (stereo not drawn) [Mefloquine (hydrochloride)]: the “Percentage of motility inhibition 0 h” value under setting [1] was determined as 45%. For the same molecule, the “Percentage of motility inhibition 24 h” value under setting [2] is on record as 22%.

As to `C=C1C(=O)O[C@@H]2/C=C(\C)[C@@H](OC(C)=O)C/C=C(\COC(C)=O)C[C@@H](OC(=O)/C(C)=C/CO)[C@@H]12` [Eupalinolide A], under “110 µM”, the “Percentage of motility inhibition 0 h” value was 11% and the “Percentage of motility inhibition 24 h” value was 38%.

For `C=C1C[C@@]2(O)O[C@@]3(C[C@H]2C(C)C)[C@@H](C)CC[C@@H]13` [Curcumol], the “Percentage of motility inhibition 0 h” value under setting [1] turned out to be 8%. Also, the “Percentage of motility inhibition 24 h” value under setting [2] came out at 12%.

As for `COc1c(O)cc2oc(-c3ccc(O)c(O)c3)cc(=O)c2c1O` [Nepetin], the “Percentage of motility inhibition 0 h” value under setting [1] was found to be 4%. The “Percentage of motility inhibition 24 h” value under setting [2] came to 17%.

On to `COC1=C(C)C(=O)O[C@]12C(=O)C(C)=C1CCCCN3[C@H]([C@@H]4C[C@H](C)C(=O)O4)CC[C@@]132` [Protostemotinine], for which the “Percentage of motility inhibition 0 h” value under setting [1] is given as 0%. Besides, under setting [2], the “Percentage of motility inhibition 24 h” value amounted to 22%.

Take `COc1cc(C)c2c(=O)c(-c3ccccc3)coc2c1` [5‐Methyl‐7‐methoxyisoflavone]: under setting [1], the “Percentage of motility inhibition 0 h” value is 16%. Under setting [2], the “Percentage of motility inhibition 24 h” value was determined as 0%.

As to `C[C@H]1[C@H](C)CC[C@]2(C(=O)O)CC[C@]3(C)C(=CC[C@@H]4[C@@]5(C)CC[C@H](O)C(C)(C)[C@@H]5CC[C@]43C)[C@H]12` [3-Epiursolic Acid], the “Percentage of motility inhibition 0 h” value under setting [1] is recorded as 3%. Also, under setting [2], the “Percentage of motility inhibition 24 h” value is 18%.

`C[C@@]12CCc3occc3[C@H]1CC[C@@]13C[C@@H](CC[C@H]12)[C@@](O)(CO)C3` [Cafestol]: under setting [1], the “Percentage of motility inhibition 0 h” value is recorded as 0%. The “Percentage of motility inhibition 24 h” value under setting [2] stood at 28%.

On to `C[C@H]1CC[C@@H]2N(C1)C[C@H]1[C@@H]3C[C@H]4[C@@H](C[C@@H](O)[C@H]5C[C@@H](O)CC[C@@]54C)[C@@H]3CC[C@@H]1[C@]2(C)O` [Isoverticine], for which, under setting [1], the “Percentage of motility inhibition 0 h” value is 0%. Further, under setting [2], the “Percentage of motility inhibition 24 h” value was determined as 0%.

With `CSC(=O)OCC1=C[C@H](O)[C@H]2C(C(=O)O)=CO[C@@H](O[C@@H]3O[C@@H](CO)[C@@H](O)[C@@H](O)[C@H]3O)[C@H]12` [Paederosidic acid], the “Percentage of motility inhibition 0 h” value under setting [1] came to 0%. The “Percentage of motility inhibition 24 h” value under setting [2] is recorded as 0%.

As for `C=CC1=C(C)c2cc3[n-]c(cc4[n-]c(cc5nc(cc1n2)C(C)=C5C=C)c(C)c4CCC(=O)O)c(CCC(=O)O)c3C.[Fe+2]` [Ferroheme], under setting [1], the “Percentage of motility inhibition 0 h” value was found to be 0%. The “Percentage of motility inhibition 24 h” value under setting [2] amounted to 0%.

Turning to `Cl.Oc1ccc(CC2NCCc3cc(O)c(O)cc32)cc1` (stereo not drawn) [Higenamine (hydrochloride)], the “Percentage of motility inhibition 0 h” value under setting [1] amounted to 0%. In addition, the “Percentage of motility inhibition 24 h” value under setting [2] is given as 7%.

On to `C=CCCCCCCCCC(=O)O` [10-Undecenoic acid], for which the “Percentage of motility inhibition 0 h” value under setting [1] came out at 0%. For the same molecule, under setting [2], the “Percentage of motility inhibition 24 h” value was found to be 6%.

Take `COCCNC(=O)Nc1ccc2nc(-c3cccs3)c(-c3cccs3)nc2c1` [Ac‐CoA Synthase Inhibitor1]: the “Percentage of motility inhibition 0 h” value under setting [1] stood at 16%. Further, under setting [2], the “Percentage of motility inhibition 24 h” value stood at 8%.

For `Cl.NCCCC[C@H](N)C(=O)O` [L-Lysine hydrochloride], the “Percentage of motility inhibition 0 h” value under setting [1] was 19%. Under setting [2], the “Percentage of motility inhibition 24 h” value stood at 0%.

Consider `C=C[C@H]1[C@H](O[C@@H]2O[C@H](CO)[C@@H](O)[C@H](O)[C@H]2O)OC=C(C(=O)OC)[C@H]1CC(=O)O` [Secoxyloganin], for which the “Percentage of motility inhibition 0 h” value under setting [1] was determined as 0%. Under setting [2], the “Percentage of motility inhibition 24 h” value is given as 3%.

Consider `CN1[C@@H]2CC[C@H]1C[C@@H](OC(=O)[C@H](CO)c1ccccc1)C2` [L-Hyoscyamine], for which the “Percentage of motility inhibition 0 h” value under setting [1] stood at 55%. Further, the “Percentage of motility inhibition 24 h” value under setting [2] turned out to be 28%.

For `CCCCCCCCCCCC(=O)O` [Lauric acid], under setting [1], the “Percentage of motility inhibition 0 h” value is 58%. Under setting [2], the “Percentage of motility inhibition 24 h” value stood at 61%.

Turning to `CC1(C)CC[C@]2(C(=O)O)CCC3=C(CC[C@@H]4[C@@]5(C)C[C@H](O)[C@H](O)[C@@](C)(C(=O)O)[C@@H]5CC[C@@]34C)[C@@H]2C1` [Polygalic acid], under setting [1], the “Percentage of motility inhibition 0 h” value was 0%. Under setting [2], the “Percentage of motility inhibition 24 h” value amounted to 1%.

On to `CCOC1c2c(ccc3c2OCO3)-c2ccc3cc4c(cc3c2N1C)OCO4` (stereo not drawn) [Ethoxysanguinarine], for which the “Percentage of motility inhibition 0 h” value under setting [1] is 0%. Under setting [2], the “Percentage of motility inhibition 24 h” value is reported as 31%.

For the molecule `CC(=O)O[C@@H]1C[C@]23C[C@@](C)(O)[C@H](CC[C@H]2[C@@](C)(O)[C@@H]2[C@@H]4O[C@@H]4C(C)(C)[C@@]12O)[C@H]3O` [Rhodojaponin II], under setting [1], the “Percentage of motility inhibition 0 h” value is listed as 4%. Also, the “Percentage of motility inhibition 24 h” value under setting [2] stood at 8%.

Turning to `CN1[C@@H]2CC[C@H]1CC(OC(=O)[C@H](CO)c1ccccc1)C2.CN1[C@@H]2CC[C@H]1CC(OC(=O)[C@H](CO)c1ccccc1)C2.O=S(=O)(O)O` (stereo partly drawn) [L‐Hyoscyamine (sulfate)], the “Percentage of motility inhibition 0 h” value under setting [1] is 18%. Further, under setting [2], the “Percentage of motility inhibition 24 h” value is listed as 9%.

In the case of `C[C@@H]1CC[C@]2(C(=O)O[C@@H]3O[C@H](CO)[C@@H](O)[C@H](O)[C@H]3O)CC[C@]3(C)C(=CC[C@@H]4[C@@]5(C)CC[C@H](O[C@@H]6OC[C@H](O)[C@H](O)[C@H]6O)C(C)(C)[C@@H]5CC[C@]43C)[C@@H]2[C@]1(C)O` [Ziyuglycoside I], under setting [1], the “Percentage of motility inhibition 0 h” value came out at 0%. Besides, the “Percentage of motility inhibition 24 h” value under setting [2] was 6%.

Turning to `CC(C)(O)[C@@H]1CC[C@](C)([C@H]2[C@@H](O)C[C@@]3(C)[C@@H]4C[C@H](O)[C@H]5C(C)(C)[C@@H](O)CC[C@@]56C[C@@]46CC[C@]23C)O1` [Cycloastragenol], the “Percentage of motility inhibition 0 h” value under setting [1] came to 8%. Moreover, the “Percentage of motility inhibition 24 h” value under setting [2] was 31%.

As to `COc1ccc([C@@H]2CC(=O)c3c(O)cc(O[C@@H]4O[C@H](CO)[C@@H](O)[C@H](O)[C@H]4O)cc3O2)cc1O` [Hesperetin 7‐O‐glucoside], under setting [1], the “Percentage of motility inhibition 0 h” value was 16%. Moreover, the “Percentage of motility inhibition 24 h” value under setting [2] is listed as 14%.

As to `CCCCCC(=O)Oc1c(Br)cc(Br)cc1Br` [2,4,6‐Tribromophenyl caproate], the “Percentage of motility inhibition 0 h” value under setting [1] is recorded as 48%. For the same molecule, the “Percentage of motility inhibition 24 h” value under setting [2] was 57%.

Regarding `CC1(C)CC[C@]2(C(=O)O[C@@H]3O[C@H](CO)[C@@H](O)[C@H](O)[C@H]3O)CC[C@]3(C)C(=CC[C@@H]4[C@@]5(C)CC[C@H](O[C@@H]6O[C@H](C(=O)O)[C@@H](O[C@@H]7O[C@@H](CO)[C@H](O)[C@H]7O)[C@H](O)[C@H]6O)C(C)(C)[C@@H]5CC[C@]43C)[C@@H]2C1` [Araloside A], the “Percentage of motility inhibition 0 h” value under setting [1] came to 6%. In addition, under setting [2], the “Percentage of motility inhibition 24 h” value is listed as 0%.

With `COc1ccc(-c2cc(=O)c3c(O)cc(O[C@@H]4O[C@H](CO)[C@@H](O)[C@H](O)[C@H]4O)cc3o2)cc1O` [Diosmetin‐7‐O‐β‐D‐glucopyranoside], the “Percentage of motility inhibition 0 h” value under setting [1] came out at 53%. Moreover, the “Percentage of motility inhibition 24 h” value under setting [2] was determined as 10%.

With `C[N+](C)(C)C[C@H](O)CC(=O)[O-]` [L-Carnitine], under setting [1], the “Percentage of motility inhibition 0 h” value turned out to be 7%. Moreover, under setting [2], the “Percentage of motility inhibition 24 h” value is reported as 1%.

Take `CC1(C)CC[C@]2(C)CC[C@]3(C)C(=CC[C@@H]4[C@@]5(C)CC[C@@H](O)[C@](C)(C(=O)O)[C@@H]5CC[C@]43C)[C@@H]2C1` [alpha-Boswellic acid]: under setting [1], the “Percentage of motility inhibition 0 h” value worked out at 34%. The “Percentage of motility inhibition 24 h” value under setting [2] turned out to be 28%.

Consider Engeletin, for which the “Percentage of motility inhibition 0 h” value under setting [1] came to 11%. Under setting [2], the “Percentage of motility inhibition 24 h” value stood at 9%.

`NC(=O)C[C@H](N)C(=O)O` [L-Asparagine]: the “Percentage of motility inhibition 0 h” value under setting [1] is listed as 27%. The “Percentage of motility inhibition 24 h” value under setting [2] is 25%.

As to `COc1cc2c(=O)c(-c3ccc(O)cc3)coc2cc1O[C@@H]1O[C@H](COC(C)=O)[C@@H](O)[C@H](O)[C@H]1O` [6''‐O‐Acetylglycitin], the “Percentage of motility inhibition 0 h” value under setting [1] worked out at 4%. The “Percentage of motility inhibition 24 h” value under setting [2] was 5%.

Regarding `CC(=O)NO` [Acetohydroxamic acid], under setting [1], the “Percentage of motility inhibition 0 h” value was found to be 13%. The “Percentage of motility inhibition 24 h” value under setting [2] worked out at 4%.

For `C=C(CC[C@@H](C(=O)O)[C@H]1CC[C@@]2(C)C3=CC[C@H]4C(C)(C)[C@@H](OC(C)=O)CC[C@]4(C)C3=CC[C@]12C)C(C)C` [Dehydroeburicoic acid monoacetate], under setting [1], the “Percentage of motility inhibition 0 h” value was determined as 20%. Also, under setting [2], the “Percentage of motility inhibition 24 h” value worked out at 24%.

Regarding `CC1(C)CC[C@]23CO[C@@]4(C=C[C@@H]5[C@@]6(C)CC[C@H](O)[C@@](C)(CO)[C@@H]6CC[C@@]5(C)[C@]4(C)C[C@@H]2O)[C@@H]3C1` [Saikogenin F], under setting [1], the “Percentage of motility inhibition 0 h” value is reported as 53%. Further, under setting [2], the “Percentage of motility inhibition 24 h” value was found to be 46%.

On to `Cc1nc(N(C)C(=O)Cc2ccc(-c3ccccn3)cc2)sc1S(N)(=O)=O` [BAY 57‐1293], for which, under setting [1], the “Percentage of motility inhibition 0 h” value is given as 36%. In addition, the “Percentage of motility inhibition 24 h” value under setting [2] worked out at 0%.

As to Aprotinin, the “Percentage of motility inhibition 0 h” value under setting [1] is given as 4%. Under setting [2], the “Percentage of motility inhibition 24 h” value was determined as 9%.

For `COc1cc(OC)c2c(=O)cc(-c3ccc(OC)c(OC)c3)oc2c1` [5,7,3',4'‐Tetramethoxyflavone], the “Percentage of motility inhibition 0 h” value under setting [1] is listed as 0%. Also, the “Percentage of motility inhibition 24 h” value under setting [2] was determined as 0%.

`CCCCCCCCCCCCCCCC(=O)NCc1ccccc1` [N‐Benzylpalmitamide]: under setting [1], the “Percentage of motility inhibition 0 h” value is listed as 0%. For the same molecule, under setting [2], the “Percentage of motility inhibition 24 h” value is reported as 20%.

Regarding `CC1=NCCc2c1[nH]c1cc(O)ccc21.Cl` [Harmalol (hydrochloride)], the “Percentage of motility inhibition 0 h” value under setting [1] was 17%. Besides, under setting [2], the “Percentage of motility inhibition 24 h” value was 2%.

Consider `COC(=O)C1=COC(O[C@@H]2O[C@H](CO)[C@@H](O)[C@H](O)[C@H]2O)/C(=C/C(=O)O)C1CC(=O)OCCc1ccc(O)c(O)c1` (stereo partly drawn) [Oleuropeinic acid], for which, under setting [1], the “Percentage of motility inhibition 0 h” value is 0%. The “Percentage of motility inhibition 24 h” value under setting [2] was found to be 8%.
